Data from ChEMBL document CHEMBL5360558, “Molecular design, synthesis and anticancer activity of new thiopyrano[2,3-d]thiazoles based on 5-hydroxy-1,4-naphthoquinone (juglone)” (Eur J Med Chem, 2023).
pIC50: −log10 of the molar value. Activity calls are given as the source filed them. The rule behind the calls is not given here.

Columns and labels:
MDA-MB-231 [1] = experiment: Induction of apoptosis in human MDA-MB-231 cells at 10 uM incubated for 24 hrs by Annexin-V-FITC/propidium iodide staining based flow cytometry analysis (reference value: 8.9%); assay type: functional
Jurkat = experiment: Induction of apoptosis in human Jurkat cells assessed as necrotic cells at 25 uM by DNA laddering assay; assay type: functional, cell-based
SN12C = experiment: Growth inhibition against human SN12C cells assessed as total growth inhibitory concentration incubated for 48 hrs by sulforhodamine B spectrophotometric assay; assay type: functional
CCRF-CEM [2] = experiment: Induction of cell cycle arrest in human CCRF-CEM cells assessed as accumulation of cells at G0/G1 phase at 20.7 uM incubated for 24 hrs by propidium iodide staining based flow cytometry analysis (reference value: 38.68 +/- 0.75%); assay type: functional
SW-620 = experiment: Growth inhibition against human SW620 cells assessed as lethal concentration incubated for 48 hrs by sulforhodamine B spectrophotometric assay; assay type: functional; conditions: read-out: LC50 (the source's name)
MCF7 = experiment: Growth inhibition against human MCF7 cells assessed as total growth inhibitory concentration incubated for 48 hrs by sulforhodamine B spectrophotometric assay; assay type: functional
MDA-MB-231 [3] = experiment: Induction of apoptosis in human MDA-MB-231 cells at 5 uM incubated for 24 hrs by Annexin-V-FITC/propidium iodide staining based flow cytometry analysis (reference value: 8.9%); assay type: functional
HOP-62 = experiment: Growth inhibition against human HOP-62 cells assessed as total growth inhibitory concentration incubated for 48 hrs by sulforhodamine B spectrophotometric assay; assay type: functional
SNB-75 = experiment: Growth inhibition against human SNB-75 cells assessed as lethal concentration incubated for 48 hrs by sulforhodamine B spectrophotometric assay; assay type: functional; conditions: read-out: LC50 (the source's name)
COLO 205 [4] = experiment: Growth inhibition against human COLO 205 cells assessed as total growth inhibitory concentration incubated for 48 hrs by sulforhodamine B spectrophotometric assay; assay type: functional
HCC 2998 [5] = experiment: Growth inhibition against human HCC 2998 cells assessed as lethal concentration incubated for 48 hrs by sulforhodamine B spectrophotometric assay; assay type: functional; conditions: read-out: LC50 (the source's name)
SK-MEL-28 [6] = experiment: Growth inhibition of human SK-MEL-28 cells incubated for 48 hrs by sulforhodamine B spectrophotometric assay; assay type: functional
LOX IMVI = experiment: Growth inhibition against human LOX IMVI cells assessed as lethal concentration incubated for 48 hrs by sulforhodamine B spectrophotometric assay; assay type: functional; conditions: read-out: LC50 (the source's name)
HCC 2998 [7] = experiment: Growth inhibition of human HCC 2998 cells incubated for 48 hrs by sulforhodamine B spectrophotometric assay; assay type: functional
CCRF-CEM [8] = experiment: Induction of cell cycle arrest in human CCRF-CEM cells assessed as accumulation of cells at G0/G1 phase at 4.14 uM incubated for 24 hrs by propidium iodide staining based flow cytometry analysis (reference value: 38.68 +/- 0.75%); assay type: functional
EKVX [9] = experiment: Growth inhibition against human EKVX cells assessed as total growth inhibitory concentration incubated for 48 hrs by sulforhodamine B spectrophotometric assay; assay type: functional
[10] = Antileukemic activity against human CLL cell assessed as cell growth inhibition incubated for 72 hrs in presence of BST by MTT assay; assay type: functional, cell-based
CAKI-1 = experiment: Growth inhibition of human CAKI-1 cells incubated for 48 hrs by sulforhodamine B spectrophotometric assay; assay type: functional
CCRF-CEM [11] = experiment: Induction of cell cycle arrest in human CCRF-CEM cells assessed as accumulation of cells at G2/M phase at 4.14 uM incubated for 24 hrs by propidium iodide staining based flow cytometry analysis (reference value: 20.24 +/- 0.25%); assay type: functional
[12] = Antileukemic activity against human CLL cell assessed as cell growth inhibition incubated for 72 hrs by MTT assay; assay type: functional, cell-based
SF-268 = experiment: Growth inhibition against human SF-268 cells assessed as lethal concentration incubated for 48 hrs by sulforhodamine B spectrophotometric assay; assay type: functional; conditions: read-out: LC50 (the source's name)
BT-549 [13] = experiment: Growth inhibition of human BT-549 cells incubated for 48 hrs by sulforhodamine B spectrophotometric assay; assay type: functional
SK-MEL-28 [14] = experiment: Growth inhibition against human SK-MEL-28 cells assessed as total growth inhibitory concentration incubated for 48 hrs by sulforhodamine B spectrophotometric assay; assay type: functional
SF-295 = experiment: Growth inhibition of human SF-295 cells incubated for 48 hrs by sulforhodamine B spectrophotometric assay; assay type: functional
MDA-MB-231 [15] = experiment: Induction of apoptosis in human MDA-MB-231 cells assessed as increase in caspase 3/7 activity at 5 uM incubated for 24 hrs by flow cytometry analysis; assay type: functional
BT-549 [16] = experiment: Growth inhibition against human BT-549 cells assessed as lethal concentration incubated for 48 hrs by sulforhodamine B spectrophotometric assay; assay type: functional; conditions: read-out: LC50 (the source's name)
KB 3-1 = experiment: Antiproliferative activity against human KB 3-1 cells assessed as decrease in cell growth at 500 nM incubated for 72 hrs by crystal violet staining based assay; assay type: functional
[17] = Acute toxicity in C57BL/6 mouse assessed as decrease in body mass at 20 mg/kg,ip administration observed after 22 days; assay type: organism-based; conditions: in vivo, 528 h, time 22 day
CCRF-CEM [18] = experiment: Induction of cell cycle arrest in human CCRF-CEM cells assessed as accumulation of cells at sub-G1 phase at 4.14 uM incubated for 24 hrs by propidium iodide staining based flow cytometry analysis (reference value: 2.36 +/- 0.049%); assay type: functional
NCI-H460 = experiment: Growth inhibition against human NCI-H460 cells assessed as total growth inhibitory concentration incubated for 48 hrs by sulforhodamine B spectrophotometric assay; assay type: functional
CCRF-CEM [19] = experiment: Induction of cell cycle arrest in human CCRF-CEM cells assessed as DNA synthesis at 4.14 uM incubated for 2.5 hrs by BrdU incorporation based flow cytometry analysis (reference value: 42.4 +/- 0.66%); assay type: functional
MDA-MB-468 = experiment: Growth inhibition of human MDA-MB-468 cells incubated for 48 hrs by sulforhodamine B spectrophotometric assay; assay type: functional
HCT-116 = experiment: Growth inhibition against human HCT-116 cells assessed as lethal concentration incubated for 48 hrs by sulforhodamine B spectrophotometric assay; assay type: functional; conditions: read-out: LC50 (the source's name)
UACC-257 = experiment: Growth inhibition against human UACC-257 cells assessed as total growth inhibitory concentration incubated for 48 hrs by sulforhodamine B spectrophotometric assay; assay type: functional
EKVX [20] = experiment: Growth inhibition against human EKVX cells assessed as lethal concentration incubated for 48 hrs by sulforhodamine B spectrophotometric assay; assay type: functional; conditions: read-out: LC50 (the source's name)
MDA-MB-231 [21] = experiment: Induction of mitochondrial membrane potential loss in human MDA-MB-231 cells at 10 uM incubated for 24 hrs by JC-1 staining based flow cytometry analysis; assay type: functional
Malme-3M = experiment: Growth inhibition against human Malme-3M cells assessed as total growth inhibitory concentration incubated for 48 hrs by sulforhodamine B spectrophotometric assay; assay type: functional
COLO 205 [22] = experiment: Growth inhibition against human COLO 205 cells assessed as lethal concentration incubated for 48 hrs by sulforhodamine B spectrophotometric assay; assay type: functional; conditions: read-out: LC50 (the source's name)
CCRF-CEM [23] = experiment: Induction of cell cycle arrest in human CCRF-CEM cells assessed as RNA synthesis at 20.7 uM incubated for 3 hrs by […] incorporation based flow cytometry analysis (reference value: 31.8 +/- 1.17%); assay type: functional
T47D = experiment: Growth inhibition against human T47D cells assessed as lethal concentration incubated for 48 hrs by sulforhodamine B spectrophotometric assay; assay type: functional; conditions: read-out: LC50 (the source's name)
A549 = experiment: Growth inhibition of human A549 cells incubated for 48 hrs by sulforhodamine B spectrophotometric assay; assay type: functional

Compound: O=C1C2=C(C(=O)c3c(O)cccc31)C(c1ccco1)c1sc(=O)[nH]c1S2 (stereo unspecified)
- Activity (MDA-MB-231 [1]): 28.2%
- Activity (Jurkat): Active
- TGI (SN12C): 3.49 µM
- Activity (CCRF-CEM [2]): 35.58%
- CC50 (SW-620): 52.7 µM
- TGI (MCF7): 3.34 µM
- Activity (MDA-MB-231 [3]): 11.7%
- TGI (HOP-62): 3.74 µM
- CC50 (SNB-75): 25.8 µM
- TGI (COLO 205 [4]): 3.61 µM
- CC50 (HCC 2998 [5]): 18.4 µM
- GI50 (SK-MEL-28 [6]): 1.87 µM
- CC50 (LOX IMVI): 84 µM
- GI50 (HCC 2998 [7]): 2.5 µM
- Activity (CCRF-CEM [8]): 34.34%
- TGI (EKVX [9]): 19.4 µM
- pIC50 [10]: 5.08
- GI50 (CAKI-1): 3.29 µM
- Activity (CCRF-CEM [11]): 23.82%
- pIC50 [12]: < 4.30
- CC50 (SF-268): > 100 µM
- GI50 (BT-549 [13]): 1.64 µM
- TGI (SK-MEL-28 [14]): 3.72 µM
- GI50 (SF-295): 1.98 µM
- Activity (MDA-MB-231 [15]): 10.6%
- CC50 (BT-549 [16]): 6.22 µM
- Activity (KB 3-1): Active
- Activity [17]: Toxic
- Activity (CCRF-CEM [18]): 5.02%
- TGI (NCI-H460): 3.48 µM
- Activity (CCRF-CEM [19]): 19.29%
- GI50 (MDA-MB-468): 2.01 µM
- CC50 (HCT-116): > 100 µM
- TGI (UACC-257): 3.26 µM
- CC50 (EKVX [20]): 44.3 µM
- Activity (MDA-MB-231 [21]): 37.3%
- TGI (Malme-3M): 2 µM
- CC50 (COLO 205 [22]): 6.93 µM
- Activity (CCRF-CEM [23]): 0.07%
- CC50 (T47D): > 100 µM
- GI50 (A549): 1.78 µM
